How the values were obtained:
mu opiate receptor = target: T1, mu opiate receptor (Rattus norvegicus, UniProt P33535); assay: Inhibition of [3H]DAMGO binding to the mu opiate receptor in rat brain homogenates; design: Mean: unit not given beside the values; conditions: 0.08 mg of compound per milliliter, 7 nM 3H-labeled DAMGO, rat brain membranes; for % Bound: [3H]DAMGO bound; for Mean: mean bound radioactivity of [3H]DAMGO; for Minus NSB*: mean minus non-specific binding; for % Inhibition: percent inhibition of DAMGO binding
T1 construct: from tissue; host or cells: rat brain membranes/homogenate
T1 sequence (P33535 whole entry): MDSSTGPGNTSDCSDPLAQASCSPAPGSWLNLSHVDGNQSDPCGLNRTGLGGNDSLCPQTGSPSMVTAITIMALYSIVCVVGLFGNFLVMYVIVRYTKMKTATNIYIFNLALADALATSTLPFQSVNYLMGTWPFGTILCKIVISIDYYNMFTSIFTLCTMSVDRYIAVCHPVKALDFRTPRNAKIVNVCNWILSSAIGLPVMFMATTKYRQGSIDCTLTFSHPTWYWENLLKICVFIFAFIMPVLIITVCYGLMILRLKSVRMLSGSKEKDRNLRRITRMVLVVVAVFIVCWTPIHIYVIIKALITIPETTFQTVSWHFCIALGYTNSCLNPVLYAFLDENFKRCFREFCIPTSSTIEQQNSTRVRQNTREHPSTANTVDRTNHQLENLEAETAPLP
Protocol: The previously prepared [3,5,7]-1H-imidazo[1,5-a]-imidazol-2(3H)-one library of individual compounds was screened for the ability to inhibit the binding of [^3H] [D-Ala^2,MePhe^4,Gly^5-ol]enkephalin (DAMGO) that is known to bind specifically to the mu opiate receptor present in rat brain homogenates following literature procedures. [Dooley et al., Science, 266:2019(1994); U.S. Pat. No. 5,763,193.]
Preparation of rat brain membranes and the receptor binding assay were carried out as described in Dooley et al., Life Sci., 52:1509(1993). Each tube in the screening assay contained 0.08 mg of compound mixture per milliliter, 0.5 mL of membrane suspension (0.1 mg of protein), 7 nM ^3H-labeled DAMGO [specific activity 36 Ci/mmol, obtained from the National Institute on Drug Abuse (NIDA) repository through Chiron Mimotopes PeptideSystems (San Diego, Calif.) and […] of peptide mixture in 50 mM Tris-HCl buffer (pH 7.4). The final volume was 0.65 mL. The results of these screenings are shown in the table, below, wherein the “R” groups are as discussed for Example 1. The results are reported as percent inhibition of DAMGO binding.

kappa opiate receptor = target: T2, kappa opiate receptor (Cavia porcellus, UniProt P41144); assay: Inhibition of tritiated U69,593 binding to the kappa opiate receptor in guinea pig brain homogenates; design: Mean: unit not given beside the values; conditions: 3 nm tritiated U69,593, guinea pig brain membranes; for % Bound: [3H]U69,593 bound; for % Inhibition: inhibition of [3H]U69,593 binding; for Mean: mean bound radioactivity of [3H]U69,593, 2.5 hours 25° C.; for Minus NSB: mean minus non-specific binding
T2 construct: guinea pig cortices and cerebella were homogenized in 40 mL of Buffer A; from tissue; host or cells: guinea pig cortices and cerebella, crude membrane suspension
T2 sequence (P41144 whole entry): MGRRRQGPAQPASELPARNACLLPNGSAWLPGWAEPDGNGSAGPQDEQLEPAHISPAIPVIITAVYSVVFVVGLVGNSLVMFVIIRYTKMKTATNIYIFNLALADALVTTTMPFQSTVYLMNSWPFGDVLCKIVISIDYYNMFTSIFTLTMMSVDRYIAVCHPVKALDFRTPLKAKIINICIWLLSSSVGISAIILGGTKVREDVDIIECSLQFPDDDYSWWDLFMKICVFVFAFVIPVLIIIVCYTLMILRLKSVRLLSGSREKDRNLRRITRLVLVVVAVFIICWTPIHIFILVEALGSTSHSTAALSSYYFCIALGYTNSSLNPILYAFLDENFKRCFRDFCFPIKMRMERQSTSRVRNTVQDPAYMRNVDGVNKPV
Protocol: The above-prepared library of individual compounds was screened for the ability to inhibit the binding of tritiated Compound U69,593 that is known to bind specifically to the kappa opiate receptor present in guinea pig brain homogenates following literature procedures. [Dooley et al., J. Biol. Chem., 273(30) 18848-18856 (1998)]
Briefly, guinea pig cortices and cerebella were homogenized in 40 mL of Buffer A [50 mM Tris-HCl, pH 7.4] at 4° C. Homogenates were centrifuged [Beckman® J2-HC, 35, 300×g] for 10 minutes. The pellets were resuspended in fresh buffer and incubated at 37° C. for 40 minutes. Following incubation, the suspensions were centrifuged as before, the resulting pellets resuspended in 100 volumes of Tris buffer, and the suspensions combined. Membrane suspensions were prepared and used on the same day. Protein content of the crude homogenates was determined by the method of Bradford, Anal. Biochem., 72:248-252 (1976).
Each assay tube contained 0.5 mL of membrane suspension, 3 nm of tritiated Compound U69,593 [(5a,7a,8b)-(−)-N-methyl-N-(7-(1-pyrrolidinyl)-1-oxaspiro(4,5)dec-8-yl)-benzeneacetamide; Lahti et al., European J. Pharmacol., 109:281-284(199-85)] in a total volume of 0.65 mL. Assay tubes were incubated for 2.5 hours a 25° C. The assay was then filtered through GF-B filters on a Tomec™ harvester (Orange, Conn.). The filters were subsequently washed with 6 mL of 50 mM Tris-HC1, pH 7.4 at 4° C. Bound radioactivity was counted on a Wallace™ Beta-plate Liquid Scintillation Counter (Piscataway, N.J.). Unlabeled U50, 488 [(trans-(dl)-3,4-dichloro-N-methyl-N-[2-(1-pyrrolidinyl)cyclohexyl]-benzeneacetamide) methane sulfonate hydrate; Lahti et al., Life Sci., 31:2257-xx(1982) and Von Voightlander et al., J. Pharmacol. Exp. Ther., 224:7 (1983)] was used as a competitive inhibitor to generate a standard curve and determine nonspecific binding. The results of these assays are shown in the table, below, wherein the “R” groups are as discussed for Example 1.

Row | SMILES | % Bound (mu opiate receptor) [%] | Mean (mu opiate receptor) | Minus NSB* (mu opiate receptor) | % Inhibition (mu opiate receptor) [%] | % Bound (kappa opiate receptor) [%] | % Inhibition (kappa opiate receptor) [%] | Mean (kappa opiate receptor) | Minus NSB (kappa opiate receptor)
1 | CC(C)c1nc(C(C)C)n2c1NC(=O)C2C(C)C (racemic) [Pool 123] | 55 | 832.5 | 524.50 | 45 | 57.124 | 42.876 | 1498.8 | 591.80
2 | Cc1nc(C)n2c1NC(=O)C2C(C)C (centres unmarked) [Pool 35] | 47 | 753.5 | 445.50 | 53 | 77.693 | 22.307 | 1711.9 | 804.90
3 | CC(C)c1nc(Cc2ccc(Br)cc2)n2c1NC(=O)C2C(C)C (racemic) [Pool 77] | 39 | 682.95 | 374.95 | 61 | 73.658 | 26.342 | 1670.1 | 763.10
4 | CC(C)c1nc(Cc2ccc(F)cc2)n2c1NC(=O)C2C(C)C (racemic) [Pool 75] | 47 | 758.2 | 450.20 | 53 | 71.134 | 28.866 | 1643.95 | 736.95
5 | Cc1nc(Cc2ccc(O)cc2)c2n1C(C(C)C)C(=O)N2 (racemic) [Pool 64] | 42 | 710.9 | 402.90 | 58 | 61.631 | 38.369 | 1545.5 | 638.50
6 | CCCc1nc(C(C)C)c2n1C(C(C)C)C(=O)N2 (racemic) [Pool 121] | 54 | 826.45 | 518.45 | 46 | 60.468 | 39.532 | 1533.45 | 626.45
7 | Cc1nc(C(C)C)c2n1C(C(C)C)C(=O)N2 (centres unmarked) [Pool 36] | 66 | 940.6 | 632.60 | 34 | 84.976 | 15.024 | 1787.35 | 880.35
8 | Cc1ncc2n1C(C(C)C)C(=O)N2 (centres unmarked) [Pool 34] | 68 | 956.4 | 648.40 | 32 | 79.117 | 20.883 | 1726.65 | 819.65
9 | CC(C)c1nc(Cc2ccc(-c3ccccc3)cc2)n2c1NC(=O)C2C(C)C (racemic) [Pool 84] | 57 | 850.4 | 542.40 | 43 | 69.624 | 30.376 | 1628.3 | 721.30
10 | COc1ccc(Cc2nc(C(C)C)c3n2C(C(C)C)C(=O)N3)cc1OC (racemic) [Pool 87] | 59 | 870.35 | 562.35 | 41 | 81.337 | 18.663 | 1749.65 | 842.65
11 | Cc1nc(CC(C)C)c2n1C(C(C)C)C(=O)N2 (centres unmarked) [Pool 37] | 66 | 932.9 | 624.90 | 34 | 62.973 | 37.027 | 1559.4 | 652.40
12 | CCC(C)C1C(=O)Nc2c(C(C)C)nc(C)n21 (centres unmarked) [Pool 21] | 55 | 833.5 | 525.50 | 45 | 56.921 | 43.079 | 1496.7 | 589.70
13 | Cc1nc(C(C)C)c2n1C(C(C)C)C(=O)N2 (centres unmarked) [Pool 142] | 67 | 946.05 | 638.05 | 33 | 79.324 | 20.676 | 1728.8 | 821.80
14 | CC(C)c1nc(CCCC2CCCCC2)n2c1NC(=O)C2C(C)C (centres unmarked) [Pool 140] | 32 | 615.55 | 307.55 | 68 | 49.903 | 50.097 | 1424 | 517.00
15 | Cc1nc(C(C)C)c2n1C(CC(C)C)C(=O)N2 (centres unmarked) [Pool 20] | 50 | 787.6 | 479.60 | 50 | 68.996 | 31.004 | 1621.8 | 714.80
16 | Cc1ccc(Cc2nc(C(C)C)c3n2C(C(C)C)C(=O)N3)cc1 (racemic) [Pool 74] | 58 | 858.65 | 550.65 | 42 | 48.287 | 51.713 | 1407.25 | 500.25
17 | CC(C)c1nc(Cc2cccc(F)c2)n2c1NC(=O)C2C(C)C (racemic) [Pool 71] | 57 | 853.7 | 545.70 | 43 | 61.245 | 38.755 | 1541.5 | 634.50
18 | CCC(C)c1nc(C)n2c1NC(=O)C2C(C)C (centres unmarked) [Pool 38] | 40 | 687.75 | 379.75 | 60 | 68.639 | 31.361 | 1618.1 | 711.10
19 | CCCC1C(=O)Nc2c(C(C)C)nc(C)n21 (centres unmarked) [Pool 12] | 72 | 998.7 | 690.70 | 28 | 74.706 | 25.294 | 1680.95 | 773.95
20 | CC(C)c1nc(C2(c3ccccc3)CC2)n2c1NC(=O)C2C(C)C (racemic) [Pool 67] | 55 | 830 | 522.00 | 45 | 84.662 | 15.338 | 1784.1 | 877.10
21 | Cc1nc(CC2CCCCC2)c2n1C(C(C)C)C(=O)N2 (racemic) [Pool 62] | 52 | 805 | 497.00 | 48 | 83.909 | 16.091 | 1776.3 | 869.30
22 | CC(C)CCc1nc(C(C)C)c2n1C(C(C)C)C(=O)N2 (centres unmarked) [Pool 127] | 63 | 909.6 | 601.60 | 37 | 66.178 | 33.822 | 1592.6 | 685.60

— patent US6545032B1, “Synthesis of [3,5,7]-H-imidazo[1,5-a] imidazol-2(3H)-one compounds” (Torrey Pines Institute for Molecular Studies, priority 1999, dated 2003)
